From PubChem BioAssay (NCI)
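GI50: concentration for 50% inhibition of growth. TGI: total growth inhibition.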

Experiments:
Test in all cases: inhibition of tumour cell growth, NCI panel, 384-well format
ACHN renal = system: ACHN renal
SNB-19 CNS = system: SNB-19 CNS
MDA-MB-231 breast = system: MDA-MB-231 breast
SF-539 CNS = system: SF-539 CNS
786-0 renal = system: 786-0 renal
MOLT-4 leukemia = system: MOLT-4 leukemia
UACC-62 melanoma = system: UACC-62 melanoma
HOP-62 NSCLC = system: HOP-62 NSCLC
SW-620 colon = system: SW-620 colon
U251 glioblastoma = system: U251 glioblastoma
DU-145 prostate = system: DU-145 prostate
NCI-H322M lung = system: NCI-H322M lung
KM12 colon = system: KM12 colon

SMILES	GI50 (ACHN renal) [µM]	TGI (ACHN renal) [µM]	GI50 (SNB-19 CNS) [µM]	TGI (SNB-19 CNS) [µM]	GI50 (MDA-MB-231 breast) [µM]	TGI (MDA-MB-231 breast) [µM]	GI50 (SF-539 CNS) [µM]	TGI (SF-539 CNS) [µM]	GI50 (786-0 renal) [µM]	TGI (786-0 renal) [µM]	GI50 (MOLT-4 leukemia) [µM]	TGI (MOLT-4 leukemia) [µM]	GI50 (UACC-62 melanoma) [µM]	TGI (UACC-62 melanoma) [µM]	GI50 (HOP-62 NSCLC) [µM]	TGI (HOP-62 NSCLC) [µM]	GI50 (SW-620 colon) [µM]	TGI (SW-620 colon) [µM]	GI50 (U251 glioblastoma) [µM]	TGI (U251 glioblastoma) [µM]	further results
COc1ccc2c(Oc3ccc(NC(=O)c4c(C)n(CC(C)(C)O)n(-c5ccccc5)c4=O)nc3)ccnc2c1	5.81	> 100	34.1	> 100	9.28	29.1	10.1	64	19.8	> 100	3.58	12.4	4.99	24	15.3	> 100	56.2	> 100	24.7	> 100	GI50 (DU-145 prostate): 8.18 µM; TGI (DU-145 prostate): > 100 µM; GI50 (NCI-H322M lung): 10.3 µM; TGI (NCI-H322M lung): > 100 µM; GI50 (KM12 colon): 0.73 µM; TGI (KM12 colon): > 100 µM
Cn1cc(-c2ccc(-c3cncc(Cl)c3N3CCC4(CCNC4=O)CC3)cc2)cn1	15.4	81.9	47.4	> 100	17.1	> 76.7	41.4	> 100	11.8	> 92.2	6.92	24.2	20.1	58.1	15.2	39.9	12.3	> 86.5	30.4	> 80.1	GI50 (DU-145 prostate): 11 µM; TGI (DU-145 prostate): 62.2 µM; GI50 (NCI-H322M lung): 22.3 µM; TGI (NCI-H322M lung): > 95.3 µM; GI50 (KM12 colon): 21.3 µM; TGI (KM12 colon): > 94.3 µM
